Source: the NIST ThermoML archive (doi:10.1016/j.jct.2017.10.002)
Several values for one entry are separate records, joined by “and”; a condition that tells them apart may be missing. Equal values may be shown once. Numbers after ± are expanded uncertainties.

Assay: molar heat capacity at constant pressure
Conditions: 101.33 kPa, relaxation calorimetry

CCc1ncc[n-]1.CCc1ncc[n-]1.[Zn+2] [zinc(II) 2-ethylimidazolide]
molar heat capacity at constant pressure
Conditions | Crystal | Glass
5.457 K | – | 1.022 ± 0.056 J/K/mol
5.583 K | 1.326 ± 0.072 J/K/mol | –
5.686 K | 0.5523 ± 0.03 J/K/mol | –
5.687 K | 1.228 ± 0.067 J/K/mol | –
5.699 K | – | 1.17 ± 0.063 J/K/mol
5.837 K | 1.479 ± 0.08 J/K/mol | –
5.933 K | 1.341 ± 0.072 J/K/mol | –
5.936 K | 0.614 ± 0.033 J/K/mol | –
5.952 K | – | 1.278 ± 0.069 J/K/mol
6 K | 1.585 ± 0.086 J/K/mol and 0.6261 ± 0.034 J/K/mol and 1.401 ± 0.076 J/K/mol | 1.321 ± 0.071 J/K/mol
6.1 K | 1.651 ± 0.089 J/K/mol | –
6.189 K | 1.538 ± 0.083 J/K/mol | –
6.195 K | 0.6531 ± 0.035 J/K/mol | –
6.204 K | – | 1.457 ± 0.079 J/K/mol
6.407 K | 1.86 ± 0.1 J/K/mol | –
6.464 K | 0.7855 ± 0.042 J/K/mol | –
6.465 K | 1.656 ± 0.089 J/K/mol | –
6.479 K | – | 1.613 ± 0.087 J/K/mol
6.685 K | 2.057 ± 0.11 J/K/mol | –
6.752 K | 1.863 ± 0.1 J/K/mol and 0.8975 ± 0.048 J/K/mol | –
6.765 K | – | 1.809 ± 0.097 J/K/mol
6.98 K | 2.277 ± 0.12 J/K/mol | –
7 K | 2.294 ± 0.12 J/K/mol and 0.9817 ± 0.053 J/K/mol and 2.037 ± 0.11 J/K/mol | 1.956 ± 0.11 J/K/mol
7.049 K | 2.08 ± 0.11 J/K/mol and 1.007 ± 0.054 J/K/mol | –
7.062 K | – | 1.981 ± 0.11 J/K/mol
7.296 K | 2.524 ± 0.14 J/K/mol | –
7.357 K | 2.322 ± 0.12 J/K/mol and 1.115 ± 0.06 J/K/mol | –
7.372 K | – | 2.248 ± 0.12 J/K/mol
7.627 K | 2.797 ± 0.15 J/K/mol | –
7.681 K | 1.273 ± 0.069 J/K/mol | –
7.686 K | 2.488 ± 0.13 J/K/mol | –
7.698 K | – | 2.428 ± 0.13 J/K/mol
7.976 K | 3.092 ± 0.17 J/K/mol | –
8 K | 3.113 ± 0.17 J/K/mol and 1.446 ± 0.078 J/K/mol and 2.772 ± 0.15 J/K/mol | 2.689 ± 0.14 J/K/mol
8.016 K | 1.458 ± 0.079 J/K/mol | –
8.018 K | 2.783 ± 0.15 J/K/mol | –
8.034 K | – | 2.703 ± 0.15 J/K/mol
8.339 K | 3.414 ± 0.18 J/K/mol | –
8.366 K | 1.661 ± 0.089 J/K/mol | –
8.367 K | 3.093 ± 0.17 J/K/mol | –
8.389 K | – | 3.029 ± 0.16 J/K/mol
8.718 K | 3.76 ± 0.2 J/K/mol | –
8.733 K | 3.359 ± 0.18 J/K/mol | –
8.737 K | 1.859 ± 0.1 J/K/mol | –
8.753 K | – | 3.269 ± 0.18 J/K/mol
9 K | 4.029 ± 0.22 J/K/mol and 2.004 ± 0.11 J/K/mol and 3.588 ± 0.19 J/K/mol | 3.511 ± 0.19 J/K/mol
9.115 K | 4.141 ± 0.22 J/K/mol | –
9.117 K | 2.11 ± 0.11 J/K/mol | –
9.118 K | 3.738 ± 0.2 J/K/mol | –
9.136 K | – | 3.605 ± 0.19 J/K/mol
9.514 K | 3.952 ± 0.21 J/K/mol | –
9.518 K | 2.336 ± 0.13 J/K/mol | –
9.529 K | 4.549 ± 0.24 J/K/mol | –
9.536 K | – | 4.033 ± 0.22 J/K/mol
9.931 K | 4.428 ± 0.24 J/K/mol | –
9.935 K | 2.594 ± 0.14 J/K/mol | –
9.953 K | – | 4.356 ± 0.23 J/K/mol
10 K | 5.029 ± 0.21 J/K/mol and 2.651 ± 0.11 J/K/mol and 4.482 ± 0.18 J/K/mol | 4.413 ± 0.18 J/K/mol
10.12 K | 5.166 ± 0.21 J/K/mol | –
10.35 K | 4.823 ± 0.2 J/K/mol and 2.874 ± 0.12 J/K/mol | 4.741 ± 0.19 J/K/mol
10.59 K | 5.656 ± 0.23 J/K/mol | –
10.77 K | 5.231 ± 0.21 J/K/mol and 3.187 ± 0.13 J/K/mol | –
10.78 K | – | 5.172 ± 0.21 J/K/mol
11.06 K | 6.17 ± 0.25 J/K/mol | –
11.24 K | 5.701 ± 0.23 J/K/mol and 3.55 ± 0.15 J/K/mol | –
11.25 K | – | 5.657 ± 0.23 J/K/mol
11.54 K | 6.677 ± 0.27 J/K/mol | –
11.74 K | 6.214 ± 0.25 J/K/mol and 3.967 ± 0.16 J/K/mol | –
11.75 K | – | 6.171 ± 0.25 J/K/mol
12.06 K | 7.299 ± 0.3 J/K/mol | –
12.26 K | 6.744 ± 0.27 J/K/mol and 4.399 ± 0.18 J/K/mol | –
12.27 K | – | 6.731 ± 0.27 J/K/mol
12.59 K | 7.93 ± 0.32 J/K/mol | –
12.81 K | 7.34 ± 0.3 J/K/mol and 4.896 ± 0.2 J/K/mol | 7.322 ± 0.3 J/K/mol
13.15 K | 8.616 ± 0.35 J/K/mol | –
13.37 K | 7.965 ± 0.32 J/K/mol and 5.426 ± 0.22 J/K/mol | –
13.38 K | – | 7.966 ± 0.32 J/K/mol
13.74 K | 9.343 ± 0.38 J/K/mol | –
13.96 K | 8.65 ± 0.35 J/K/mol and 6.006 ± 0.24 J/K/mol | –
13.97 K | – | 8.66 ± 0.35 J/K/mol
14.35 K | 10.14 ± 0.41 J/K/mol | –
14.57 K | 9.355 ± 0.38 J/K/mol and 6.627 ± 0.27 J/K/mol | –
14.59 K | – | 9.395 ± 0.38 J/K/mol
14.99 K | 10.97 ± 0.45 J/K/mol | –
15 K | 10.96 ± 0.45 J/K/mol and 7.064 ± 0.29 J/K/mol and 9.871 ± 0.4 J/K/mol | 9.887 ± 0.4 J/K/mol
15.22 K | 10.14 ± 0.41 J/K/mol and 7.319 ± 0.3 J/K/mol | –
15.23 K | – | 10.18 ± 0.41 J/K/mol
15.49 K | 11.63 ± 0.47 J/K/mol | –
15.72 K | 7.865 ± 0.32 J/K/mol | –
15.73 K | 10.74 ± 0.44 J/K/mol | –
15.74 K | – | 10.79 ± 0.44 J/K/mol
16.94 K | 13.59 ± 0.55 J/K/mol | –
17.17 K | 12.58 ± 0.51 J/K/mol | –
17.18 K | 9.551 ± 0.39 J/K/mol | 12.66 ± 0.52 J/K/mol
18.52 K | 15.74 ± 0.64 J/K/mol | –
18.77 K | 11.5 ± 0.47 J/K/mol | –
18.78 K | 14.67 ± 0.6 J/K/mol | –
18.79 K | – | 14.78 ± 0.6 J/K/mol
20 K | 17.74 ± 0.72 J/K/mol and 13.06 ± 0.53 J/K/mol and 16.28 ± 0.66 J/K/mol | 16.43 ± 0.67 J/K/mol
